# Results taken from patent publication US11312720B2, “Hydrochloride salt of 2-((3R,4S)-1-(5-(4-chloro-3,5-difluorophenyl)-7-((2-fluoro-6-methylphenyl)(methyl)amino)pyrazolo[1,5-a]pyrimidine-2-carbonyl)-3-methoxypiperidin-4-yl) acetic acid and crystals thereof” (Eisai R&D Management Co., Ltd., priority 2018, dated 2022).
# Legend:
# [1] = Solubility test (24 h shaking at room temperature, HPLC); assay type: physicochemical; settings: thermodynamic from solid
# Experimental: About 1 mg of the test compound was weighed into a test tube and 1 mL of a test solution was added. For the test solutions, a 0.1 M hydrochloric acid aqueous solution (pH 1) and Britton-Robinson buffers (pH 3, pH 5 and pH 7; ionic strength 0.3) were used. The test solution was shaken at room temperature for 24 hours and subsequently filtered through a filter. A concentration of the test compound in the filtrate was measured by high-performance liquid chromatography to evaluate solubility. […] Additionally, high-performance liquid chromatography (HPLC) conditions are shown below.
# Column; YMC-Pack Pro C18, 4.6 mm×35 mm, 3 μm
# Mobile phase A; water:acetonitrile:70% perchloric acid=900:100:1
# Mobile phase B; water:acetonitrile:70% perchloric acid=100:900:1
# Column temperature; 40° C.
# Detection wavelength; 275 nm
# [2] = Dissolution test by the paddle method in FaSSIF; assay type: physicochemical; settings: FaSSIF pH 6.5, 37° C., 50 rpm, about 10 mg in 100 mL
# Experimental: The dissolution test was carried out by the paddle method using FaSSIF (an aqueous solution containing 3 mM sodium taurocholate, 0.75 mM lecithin, 29 mM sodium dihydrogen phosphate and 103 mM potassium chloride and adjusted to pH 6.5 by adding dropwise a sodium hydroxide aqueous solution) as the test solution. About 10 mg of the test compound was added to 100 mL of the test solution. Under the condition at 37° C. and 50 rpm, the test solution was stirred using a paddle. After the start of the stirring, 1 mL of the test solution was collected at each of the time points shown in Table 6 and filtered through a filter. A concentration of the test compound in the filtrate was measured by high-performance liquid chromatography (HPLC conditions were the same conditions described in Test Example 2).
# [3] = aqueous buffer, pH 3, Britton-Robinson buffer
# [4] = aqueous buffer, pH 5, Britton-Robinson buffer
# [5] = aqueous buffer, pH 7, Britton-Robinson buffer
# [6] = simulated gastric fluid, pH 1, 0.1M hydrochloric acid aqueous solution
"solubility at 24 h [1, 3] [µg/mL]","solubility at 24 h [1, 4] [µg/mL]","solubility at 24 h [1, 5] [µg/mL]","solubility at 24 h [1, 6] [µg/mL]",Concentration of Test compound ([2]; 10 Min) [ng/mL],Concentration of Test compound ([2]; 20 Min) [ng/mL],Concentration of Test compound ([2]; 24 Hours) [ng/mL],Concentration of Test compound ([2]; 30 Min) [ng/mL],Concentration of Test compound ([2]; 40 Min) [ng/mL],Concentration of Test compound ([2]; 60 Min) [ng/mL],Concentration of Test compound ([2]; 90 Min) [ng/mL],Concentration of Test compound ([2]; 120 Min) [ng/mL],Concentration of Test compound ([2]; 180 Min) [ng/mL],Concentration of Test compound ([2]; 240 Min) [ng/mL],SMILES
< 1,< 1,13,< 1,4000,7000,18000,8000,9000,10000,11000,11000,12000,12000,"CO[C@H]1CN(C(=O)c2cc3nc(-c4cc(F)c(Cl)c(F)c4)cc(N(C)c4c(C)cccc4F)n3n2)CC[C@H]1CC(=O)O [Reference Example 4, 2-((3R,4S)-1-(5-(4-chloro-3,5-difluorophenyl)-7-((2-fluoro-6-methylphenyl)(methyl)amino)pyrazolo[1,5-a]pyrimidine-2-carbonyl)-3-methoxypiperidin-4-yl)acetic Acid]"
< 1,1,> 1200,4,30000,38000,103000,46000,51000,61000,72000,78000,85000,87000,"CO[C@H]1CN(C(=O)c2cc3nc(-c4cc(F)c(Cl)c(F)c4)cc(N(C)c4c(C)cccc4F)n3n2)CC[C@H]1CC(=O)O.Cl [Example 1, 2-((3R,4S)-1-(5-(4-chloro-3,5-difluorophenyl)-7-((2-fluoro-6-methylphenyl)(methyl)amino)pyrazolo[1,5-a]pyrimidine-2-carbonyl)-3-methoxypiperidin-4-yl)acetic Acid Hydrochloride]"
